Each structure is given as a SMILES string.

Common to all, as to assay type: ADME
Series [1] addresses T1, UDP-glucuronosyltransferase 2B15 (Homo sapiens, UniProt P54855).
T1 sequence (P54855 whole entry): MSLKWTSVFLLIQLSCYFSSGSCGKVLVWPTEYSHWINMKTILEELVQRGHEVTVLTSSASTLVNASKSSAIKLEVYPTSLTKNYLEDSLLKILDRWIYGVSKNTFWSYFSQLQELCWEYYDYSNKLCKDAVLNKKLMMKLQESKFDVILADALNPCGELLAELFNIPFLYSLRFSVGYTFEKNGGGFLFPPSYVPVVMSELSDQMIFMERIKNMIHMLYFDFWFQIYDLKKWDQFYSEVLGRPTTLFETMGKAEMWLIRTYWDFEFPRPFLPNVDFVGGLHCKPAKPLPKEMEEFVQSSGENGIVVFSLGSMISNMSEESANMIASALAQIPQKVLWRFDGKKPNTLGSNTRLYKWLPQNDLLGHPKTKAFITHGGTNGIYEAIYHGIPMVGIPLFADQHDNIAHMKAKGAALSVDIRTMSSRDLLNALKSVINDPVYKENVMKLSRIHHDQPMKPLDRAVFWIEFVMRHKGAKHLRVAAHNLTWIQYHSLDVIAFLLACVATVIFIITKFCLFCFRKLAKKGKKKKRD
The experiment in a line: Substrate of human UDP-glucuronosyltransferase UGT2B15.

The target in series [2] is T2, Glutathione S-transferase theta-1 (Homo sapiens, UniProt P30711).
T2 sequence (P30711 whole entry): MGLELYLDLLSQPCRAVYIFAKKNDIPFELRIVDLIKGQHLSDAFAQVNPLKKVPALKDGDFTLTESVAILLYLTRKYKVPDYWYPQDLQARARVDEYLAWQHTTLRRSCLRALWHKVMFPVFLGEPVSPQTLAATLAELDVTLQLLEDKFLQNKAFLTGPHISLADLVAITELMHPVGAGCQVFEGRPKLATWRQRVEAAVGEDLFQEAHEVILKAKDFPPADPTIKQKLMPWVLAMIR
Briefly: Substrates for human cytosolic glutathione transferase GSTT1.

In series [3] the target is T3, Glutathione S-transferase Mu 2 (Homo sapiens, UniProt P28161).
T3 sequence (P28161 whole entry): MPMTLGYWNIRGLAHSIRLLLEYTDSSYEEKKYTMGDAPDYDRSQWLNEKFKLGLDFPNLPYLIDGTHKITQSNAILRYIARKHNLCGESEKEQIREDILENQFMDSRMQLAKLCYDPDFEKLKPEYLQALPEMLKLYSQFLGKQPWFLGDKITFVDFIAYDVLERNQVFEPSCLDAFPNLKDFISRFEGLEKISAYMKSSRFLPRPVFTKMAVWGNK
The experiment in a line: Substrates for human cytosolic glutathione transferase GSTM2.

Series [4] deals with T4, UDP-glucuronosyltransferase 1A8 (Homo sapiens, UniProt Q9HAW9).
T4 sequence (Q9HAW9 whole entry): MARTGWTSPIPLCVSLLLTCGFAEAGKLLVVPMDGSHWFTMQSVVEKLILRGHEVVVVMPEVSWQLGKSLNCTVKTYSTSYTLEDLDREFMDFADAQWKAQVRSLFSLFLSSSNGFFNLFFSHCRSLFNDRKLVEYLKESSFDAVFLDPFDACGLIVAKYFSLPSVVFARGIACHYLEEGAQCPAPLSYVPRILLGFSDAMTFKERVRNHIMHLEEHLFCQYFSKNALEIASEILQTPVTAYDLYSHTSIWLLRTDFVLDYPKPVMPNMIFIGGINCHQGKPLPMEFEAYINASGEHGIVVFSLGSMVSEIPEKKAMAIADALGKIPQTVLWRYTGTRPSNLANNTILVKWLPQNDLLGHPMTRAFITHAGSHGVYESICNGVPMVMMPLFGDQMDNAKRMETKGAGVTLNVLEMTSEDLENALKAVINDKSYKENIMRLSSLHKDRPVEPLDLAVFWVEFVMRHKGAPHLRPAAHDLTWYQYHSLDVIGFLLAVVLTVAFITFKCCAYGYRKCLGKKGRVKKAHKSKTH
Briefly: Substrate of human UDP-glucuronosyltransferase UGT1A8.

Series [5] deals with T5, UDP-glucuronosyltransferase 1A9 (Homo sapiens, UniProt O60656).
T5 sequence (O60656 whole entry): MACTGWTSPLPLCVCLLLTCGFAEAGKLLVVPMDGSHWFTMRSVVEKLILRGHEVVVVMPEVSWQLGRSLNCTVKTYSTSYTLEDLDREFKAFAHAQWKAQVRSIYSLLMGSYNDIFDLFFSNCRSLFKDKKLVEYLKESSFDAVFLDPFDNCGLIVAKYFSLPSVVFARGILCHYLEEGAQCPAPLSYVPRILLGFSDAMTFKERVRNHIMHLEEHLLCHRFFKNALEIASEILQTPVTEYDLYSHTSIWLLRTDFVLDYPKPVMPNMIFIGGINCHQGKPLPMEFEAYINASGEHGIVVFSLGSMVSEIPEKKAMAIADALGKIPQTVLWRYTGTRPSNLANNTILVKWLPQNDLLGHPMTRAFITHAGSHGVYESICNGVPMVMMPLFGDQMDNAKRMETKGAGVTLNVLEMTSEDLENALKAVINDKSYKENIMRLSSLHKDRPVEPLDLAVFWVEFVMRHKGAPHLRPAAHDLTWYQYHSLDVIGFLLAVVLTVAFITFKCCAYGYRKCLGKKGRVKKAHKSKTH
Briefly: Substrate of human UDP-glucuronosyltransferase UGT1A9.

The target of series [6] is T6, Glutathione S-transferase Mu 1 (Homo sapiens, UniProt P09488).
T6 sequence (P09488 whole entry): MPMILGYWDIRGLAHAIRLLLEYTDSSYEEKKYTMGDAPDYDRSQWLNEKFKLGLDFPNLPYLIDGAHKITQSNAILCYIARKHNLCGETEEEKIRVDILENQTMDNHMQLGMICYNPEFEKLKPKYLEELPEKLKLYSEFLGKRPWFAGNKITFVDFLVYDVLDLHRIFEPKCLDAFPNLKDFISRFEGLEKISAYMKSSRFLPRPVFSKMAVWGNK
Briefly: Substrates for human cytosolic glutathione transferase GSTM1.

In the next series the target is Cytochrome P450 2C9 (Homo sapiens, UniProt P11712). The experiment in a line: Clinically relevant substrates of human liver microsomal P450 enzymes, isoform CYP2C9. The conditions noted are these: microsomes.
Series [7] has as its target T7, Glutathione S-transferase A1 (Homo sapiens, UniProt P08263).
T7 sequence (P08263 whole entry): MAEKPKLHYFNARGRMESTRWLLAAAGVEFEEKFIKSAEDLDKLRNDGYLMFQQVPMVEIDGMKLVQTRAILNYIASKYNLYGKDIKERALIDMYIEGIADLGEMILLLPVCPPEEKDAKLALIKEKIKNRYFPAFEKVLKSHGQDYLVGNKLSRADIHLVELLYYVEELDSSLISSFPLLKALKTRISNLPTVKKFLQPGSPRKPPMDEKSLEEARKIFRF
Briefly: Substrates for human cytosolic glutathione transferase GSTA1.

The target of series [8] is T8, UDP-glucuronosyltransferase 1A6 (Homo sapiens, UniProt P19224).
T8 sequence (P19224 whole entry): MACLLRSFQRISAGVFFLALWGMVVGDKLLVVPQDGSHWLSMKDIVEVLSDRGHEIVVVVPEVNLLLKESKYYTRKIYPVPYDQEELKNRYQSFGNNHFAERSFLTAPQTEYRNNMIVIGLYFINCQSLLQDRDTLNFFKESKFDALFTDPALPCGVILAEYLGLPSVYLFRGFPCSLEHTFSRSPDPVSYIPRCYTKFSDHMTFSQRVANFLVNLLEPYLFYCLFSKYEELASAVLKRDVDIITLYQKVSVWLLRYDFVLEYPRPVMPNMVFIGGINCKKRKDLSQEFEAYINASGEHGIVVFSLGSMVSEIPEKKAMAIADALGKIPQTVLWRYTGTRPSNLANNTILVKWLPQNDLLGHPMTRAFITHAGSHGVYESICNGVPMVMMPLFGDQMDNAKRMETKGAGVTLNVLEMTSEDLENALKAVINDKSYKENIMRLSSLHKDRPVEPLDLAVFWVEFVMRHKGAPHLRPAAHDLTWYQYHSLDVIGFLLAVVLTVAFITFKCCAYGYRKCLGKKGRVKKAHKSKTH
Briefly: Substrate of human UDP-glucuronosyltransferase UGT1A6.

The next series addresses T9, Sulfotransferase 1E1 (Homo sapiens, UniProt P49888).
T9 sequence (P49888 whole entry): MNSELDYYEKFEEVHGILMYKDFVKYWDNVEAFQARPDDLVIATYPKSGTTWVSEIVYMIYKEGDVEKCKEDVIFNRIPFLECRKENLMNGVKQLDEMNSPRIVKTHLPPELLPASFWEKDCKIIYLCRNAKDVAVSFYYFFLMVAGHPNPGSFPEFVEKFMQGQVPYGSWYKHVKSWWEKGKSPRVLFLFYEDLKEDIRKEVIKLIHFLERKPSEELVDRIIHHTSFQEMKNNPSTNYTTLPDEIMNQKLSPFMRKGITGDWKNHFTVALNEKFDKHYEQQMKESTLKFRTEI
The experiment in a line: Major substrate of human cytosolic sulfotransferase SULT1E1.

Series [9] concerns the target T10, UDP-glucuronosyltransferase 1A10 (Homo sapiens, UniProt Q9HAW8).
T10 sequence (Q9HAW8 whole entry): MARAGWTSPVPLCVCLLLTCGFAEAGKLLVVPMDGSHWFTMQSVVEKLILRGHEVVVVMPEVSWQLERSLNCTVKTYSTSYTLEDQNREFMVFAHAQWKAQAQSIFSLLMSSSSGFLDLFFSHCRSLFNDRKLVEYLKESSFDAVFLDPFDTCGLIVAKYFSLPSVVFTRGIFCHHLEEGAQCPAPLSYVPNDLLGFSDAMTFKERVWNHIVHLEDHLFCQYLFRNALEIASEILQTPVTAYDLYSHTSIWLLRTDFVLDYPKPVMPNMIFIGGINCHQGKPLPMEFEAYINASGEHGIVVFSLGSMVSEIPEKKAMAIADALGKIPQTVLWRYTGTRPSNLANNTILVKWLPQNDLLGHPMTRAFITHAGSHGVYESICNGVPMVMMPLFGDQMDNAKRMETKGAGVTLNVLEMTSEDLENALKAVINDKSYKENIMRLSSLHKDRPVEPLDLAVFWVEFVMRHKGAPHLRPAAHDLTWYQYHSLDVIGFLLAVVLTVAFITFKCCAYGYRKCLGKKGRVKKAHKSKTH
The experiment in a line: Substrate of human UDP-glucuronosyltransferase UGT1A10.

Series [10] addresses Glutathione S-transferase P (Homo sapiens, UniProt P09211). Briefly: Substrates for human cytosolic glutathione transferase GSTP1.
In series [11] the target is T11, UDP-glucuronosyltransferase 1A1 (Homo sapiens, UniProt P22309).
T11 sequence (P22309 whole entry): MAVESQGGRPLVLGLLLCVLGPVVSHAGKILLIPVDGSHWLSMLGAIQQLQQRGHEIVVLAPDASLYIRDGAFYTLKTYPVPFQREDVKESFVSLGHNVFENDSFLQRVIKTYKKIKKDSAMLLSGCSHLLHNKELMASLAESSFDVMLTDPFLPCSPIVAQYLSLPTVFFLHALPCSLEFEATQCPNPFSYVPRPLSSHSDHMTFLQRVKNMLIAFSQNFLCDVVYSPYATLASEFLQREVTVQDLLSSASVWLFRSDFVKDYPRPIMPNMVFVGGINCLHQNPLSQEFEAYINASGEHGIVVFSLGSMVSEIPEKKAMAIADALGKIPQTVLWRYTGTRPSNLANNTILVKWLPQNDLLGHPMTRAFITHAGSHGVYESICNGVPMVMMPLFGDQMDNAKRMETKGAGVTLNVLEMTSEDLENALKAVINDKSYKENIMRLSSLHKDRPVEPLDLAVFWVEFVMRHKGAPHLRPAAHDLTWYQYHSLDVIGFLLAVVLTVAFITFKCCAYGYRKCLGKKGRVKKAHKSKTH
Briefly: Substrate of human UDP-glucuronosyltransferase UGT1A1.

Chain of Cytochrome P450 2C9 (P11712 whole entry, canonical isoform): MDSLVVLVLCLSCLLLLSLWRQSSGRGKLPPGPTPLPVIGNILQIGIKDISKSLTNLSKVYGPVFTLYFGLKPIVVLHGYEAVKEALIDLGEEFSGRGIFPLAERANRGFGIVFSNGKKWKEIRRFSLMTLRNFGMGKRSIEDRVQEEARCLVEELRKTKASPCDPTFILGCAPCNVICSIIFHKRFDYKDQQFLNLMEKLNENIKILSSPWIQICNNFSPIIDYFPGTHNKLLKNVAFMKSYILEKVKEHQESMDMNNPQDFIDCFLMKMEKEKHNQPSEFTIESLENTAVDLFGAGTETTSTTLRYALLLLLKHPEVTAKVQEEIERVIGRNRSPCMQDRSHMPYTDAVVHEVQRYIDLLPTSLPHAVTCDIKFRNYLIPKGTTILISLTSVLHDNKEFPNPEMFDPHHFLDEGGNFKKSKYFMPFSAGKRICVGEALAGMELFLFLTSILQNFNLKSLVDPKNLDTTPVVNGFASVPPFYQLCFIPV
Chain of Glutathione S-transferase P (P09211 whole entry): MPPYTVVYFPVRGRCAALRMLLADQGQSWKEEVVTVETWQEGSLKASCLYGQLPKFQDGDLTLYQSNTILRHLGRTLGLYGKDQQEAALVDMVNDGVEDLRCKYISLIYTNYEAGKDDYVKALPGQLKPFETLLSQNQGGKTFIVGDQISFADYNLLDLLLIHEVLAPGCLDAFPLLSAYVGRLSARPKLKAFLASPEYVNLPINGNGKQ

Regarding `Cc1ccc(C(=O)c2cc(O)c(O)c([N+](=O)[O-])c2)cc1` [TOLCAPONE], the Activity result in series [1] is “Substrate”.
For the compound `CCC(=C(c1ccc(O)cc1)c1ccc(OCCN(C)C)cc1)c1ccccc1`, the Activity result in series [1] was “Substrate”.
For the compound `C=CC1CO1` (configuration not stated) [BUTADIENE EPOXIDE], the Activity entry in [2] was “Substrate”.
With `NC(CC1=CC(=O)C(=O)C=C1)C(=O)O` (configuration not stated), the Activity result in series [3] is on record as “Substrate”.
For `O=C1C=C2CCNC2=CC1=O` [AMINOCHROME], in series [3], the Activity result is “Substrate”.
As for `CCN(CC)C(=O)/C(C#N)=C/c1cc(O)c(O)c([N+](=O)[O-])c1` [ENTACAPONE], the Activity result in series [4], in series [5] and in [1] was “Substrate” each time.
Regarding `O=[N+]([O-])c1ccc(OCC2CO2)cc1` (configuration not stated), the Activity result in series [2] is “Substrate”.
With `c1ccc(C2CO2)cc1` (configuration not stated), in series [6], the Activity result is given as “Substrate”.
Take `O=[N+]([O-])c1ccc(Cl)c(Cl)c1`: the Activity result in [3] is listed as “Substrate”.
For `ClCCl` [METHYLENE CHLORIDE], the Activity entry in series [2] was “Substrate”.
Regarding `CC(C(=O)O)c1ccc(-c2ccccc2)c(F)c1` (configuration not stated) [FLURBIPROFEN], at Cytochrome P450 2C9, the Activity result is “Substrate”.
Consider `c1ccc([C@H]2O[C@@H]2c2ccccc2)cc1` (relative stereo), for which, in series [6], the Activity entry is “Substrate”.
As for `C1CO1` [OXIRANE], the Activity result in [2] is listed as “Substrate”.
As to `OC1c2c(ccc3cc4c(ccc5ccccc54)cc23)C2OC2C1O` (configuration not stated) [DIBENZ[A,H]ANTHRACENE DIOL EPOXIDE], the Activity entry in series [6] and in series [7] was “Substrate” in each case.
With `Oc1cccc2ccccc12` [1-NAPHTHOL], the Activity result (in [8]; at Sulfotransferase 1E1; in series [9]) was “Substrate” each time.
For the compound `OC1c2cc3ccc4cccc5ccc(c2C2OC2C1O)c3c45` (configuration not stated) [BENZO[A]PYRENE DIOL EPOXIDE], the Activity entry in series [10], in [6] and in series [7] was “Substrate” throughout.
Regarding `NS(=O)(=O)c1cc(C(=O)O)c(NCc2ccco2)cc1Cl` [FUROSEMIDE], the Activity result in series [4], in series [5] and in series [9] was “Substrate” throughout.
In the case of `OC1c2ccc3c(ccc4ccccc43)c2C2OC2C1O` (configuration not stated), the Activity result in series [10] and in series [6] was “Substrate” throughout.
Consider `CC(=O)C[C@@H](c1ccccc1)c1c(O)c2ccccc2oc1=O`, for which the Activity entry on Cytochrome P450 2C9 was “Substrate”.
Consider `O=C(c1ccc(OCCN2CCCCC2)cc1)c1c(-c2ccc(O)cc2)sc2cc(O)ccc12` [RALOXIFENE], for which the Activity entry in series [4], in series [11] and in series [9] was “Substrate” throughout.
